# Assay results taken from patent publication US20100255020A1, “METHOD FOR INDUCING CYTOTOXIC T-CELLS, CYTOTOXIC T-CELL INDUCERS, AND PHARMACEUTICAL COMPOSITIONS AND VACCINES EMPLOYING THEM” (NEC CORPORATION, priority 2007, published 2010).
# Where no end group is shown, it is not given here.
# Key:
# [1] = test system: HLA-A*2402 positive cell lines that express WT1 naturally (KAZZ, KCL22, KH88, MEG01); test: Reactivity of WT1 peptide-specific cell lines toward tumor cells (IFN-γ ELISPOT); type: cell-based, human; conditions: cell lines established from HLA-A*2402 positive patients, FIG. 5
# Source text: Reactions of cell lines established from different patients are arranged in a bar graph.
# malignant tumors = test: Peptide immunotherapy of patients, tumor response by RECIST criteria (CT/MRI); type: in vivo, human; design: key to RECIST, single lung metastasis / RECIST, total sum of longest diameters of 10 metastatic target lesions / RECIST, pubic bone metastatic tumor / RECIST determination 3 months after starting W10 peptide therapy: CR: all target lesions have disappeared; PR: the sum of the longest diameters of the target lesions decreases by at least 30%; PD: the sum of the longest diameters of the target lesions increases by at least 20%; SD: the change of tumr size is between PR or PD
# Description: Among 18 patients, 3 people are illustrated in the style of case reports. […] The mixture was prepared immediately prior to administration. When W10 peptide was administered without petussis vaccine in the safety test, W10 peptide solution was divided into 4 equal portions and injected intradermally at 4 locations in the same manner. A method to measure the diameter of a tumor and a method to analyze peptide-specific T-cells using an HLA-A24 tetramer by flow cytometry are described below.
# The international RECIST criteria referred to here is an evaluation standard described in Theresse, P. et al., J Natl Cancer Inst. 2000, 92, 205-216. When there is confirmation by helical CT or MRI that all target lesions have disappeared this is defined as CR (complete response), when the sum of the longest diameters of the target lesions decreases by at least 30% this is defined as PR (partial response), when the sum of the longest diameters of the target lesions increases by at least 20% this is defined as PD (progressive disease), and when the change of tumr size is between PR or PD this is defined as SD (stable disease). However, regardless of the presence or absence of a change in the target lesions, when even one new lesion appears this is defined as PD.
# Based on the above-mentioned international RECIST criteria, which is used for evaluation of anticancer drugs, all measurable tumors were selected as target tumors, and change in the SLD of the tumors over the course of the therapy was monitored. In addition, number of all the tumors was counted, regardless of the size of a tumor, every time diagnostic imaging was carried out in order to lookout for new lesions. Diagnostic imaging was carried out in principle once a month by helical CT or MRI. If even one new metastasis appeared, regardless of the change in the primary lesion, it was judged as PD.
# Clinical responses were evaluated according to the aforementioned international RECIST criteria for 18 patients who had been treated by immunotherapy using W10+Wc for at least 3 months and one week. Eight cased out of 18 patients were judged as SD, 10 cased were PD. […] In reports on peptide immunotherapy so far, the tumor control rate was limited to a few % up to ten or so % worldwide (Reference Documents 1 to 4). Compared with these already reported cases, this is a good reaction.
# [2] = test system: peptide-loaded target cells (C1R-A24, RA24, T2); test: 51Cr release assay of PBMC killing activity against peptide-loaded target cells; type: cell-based, human
# Description: Target cells were labeled with ^51Cr and loaded with HLA-binding peptide of interest. 5,000 or 10,000 cells/well of target cells were placed in 96-well U-bottom plate, and then, PBMCs having been stimulated twice in vitro were added thereto as a responder. Cells were incubated at 37° C. for 5 hours and ^51Cr released from the damaged cells during the incubation was measured, and % specific lysis was calculated. As target cells C1R-A24 or RA24 cells were used as a target when reactivity to HLA-A*2402 binding peptides were examined, and T2 cells were used as a target and incubation was carried out for 2 hours after addition of responder cells. Percent specific lysis was calculated as follows. % specific lysis=(test release-spontaneous release)/(total release-spontaneous release)×100.
# HLA-A*0206 molecule = target: T1, HLA-A*0206 molecule (Homo sapiens, UniProt P04439, D140Y/D185E/D98H/E176V/E277Q/F33Y/G131W/G231S/I119V/I121R/I166T/I218V/L300P/L318F/N151K/N90K/P208A/P217A/Q86G/Q94H/R138H/R169H/T345S); test: Peptide binding to HLA-A*0206 molecule on RA2.6 cells (flow cytometry, Kd); conditions: HLA-A*0206, RA2.6 cells; read-out: Binding assay data (−log Kd) (converted)
# T1 construct: expressed in transfected cells; host or cells: RA2.6 (mouse TAP-deficient RMAS cells transfected with pMKITneo bearing HLA-A*0206 cDNA)
# Description: The ability of a peptide to bind to an HLA-A*0206 molecule, which is a product of the HLA-A*0206 gene, was measured using RA2.6 cells (cell line newly generated in Kochi University), wherein cDNA of the HLA-A*0206 gene is introduced into RMAS, which is a mouse TAP (transporter associated with antigen processing)-deficient cell line.
# RA2.6 cells were first cultured overnight at 26° C., during this incubation HLA-A*0206 molecules devoid of bound peptide accumulated. Serial dilutions of peptide were added to these cells and peptide binding was carried out at room temperature for 30 minutes.
# Subsequently, culture was carried out at 37° C. for 3.5 hours, during this incubation empty HLA-A*0206 molecules to which no peptide was bound were denatured, and the tertiary structure was lost.
# The cells were stained by adding thereto fluorescently-labeled monoclonal antibody BB7.2, which specifically recognizes the peptide-bound HLA-A*0206 molecule, and incubating on ice for 20 minutes.
# Subsequently, the amount of fluorescence per cell was measured using a flow cytometer, and a dissociation constant Kd value was calculated by a method published in the literature (Udaka et al., Immunogenetics, 51, 816-828, 2000).
# HLA-A*2402 molecule = HLA-A*2402 molecule (Homo sapiens, UniProt P04439, D101N/D140Y/D185E/E176V/E190D/F33S/G103R/G107R/I119L/I121M/I306V/K335N/L105A/L180Q/L300P/N151K/N90K/Q86E/Q94H/R106L/R138H/R89G/T104I/T345S/V100E/W191G/Y123F); test: Peptide binding to HLA-A*2402 molecule on C1R-A24 cells (flow cytometry, Kd); conditions: HLA-A*2402, C1R-A24 cells; read-out: Binding assay data (−log Kd) (converted)
# Description: The ability of a peptide to bind to an HLA-A*2402 molecule, which is a product of the HLA-A*2402 gene, was measured using C1R-A24 cells expressing the HLA-A*2402 molecule (cells generated by Professor Masafumi Takiguchi, Kumamoto University being supplied with permission by Associate Professor Masaki Yasukawa, Ehime University).
# C1R-A24 cells were first exposed to acidic conditions at a pH of 3.3 for 30 seconds, thus dissociating and removing a β2m light chain, which is associated with HLA class I molecules in common, and an endogenous peptide originally bound to the HLA-A*2402 molecule. After neutralization, purified β2m was added to C1R-A24 cells, the obtained product was added to serial dilutions of a peptide, and incubated on ice for 4 hours. […]
# Subsequently, the number of MHC-pep complexes per C1R-A24 cell (proportional to the intensity of fluorescence of the above-mentioned fluorescent antibody) was quantitatively measured using a FACScan fluorescence-activated flow cytometer (Becton Dickinson Biosciences). A dissociation constant Kd value between the HLA-A*2402 molecule and the peptide was calculated from the average intensity of fluorescence per cell by a method published in the literature (Udaka et al., Immunogenetics, 51, 816-828, 2000).
# HLA-A*0201 molecule = HLA-A*0201 molecule (Homo sapiens, UniProt P04439, D140Y/D185E/D98H/E176V/E277Q/G131W/G231S/I119V/I121R/I166T/I218V/L300P/L318F/N151K/N90K/P208A/P217A/Q86G/Q94H/R138H/R169H/T345S); test: Peptide binding to HLA-A*0201 molecule on JY cells (flow cytometry, Kd); conditions: HLA-A*0201, JY cells; read-out: Binding assay data (−log Kd) (converted)
# Description: The ability of a peptide to bind to an HLA-A*0201 molecule, which is a product of the HLA-A*0201 gene, was measured using strain JY cells expressing the HLA-A*0201 molecule.
# JY cells were first exposed to acidic conditions at a pH of 3.8 for 30 seconds, thus dissociating and removing a β2m light chain and an endogenous peptide, which were noncovalently associated with the HLA-A* 0201 molecule. After neutralization, a reconstitution experiment was carried out.
# The above-mentioned JY cells and the purified […] were added to serial dilutions of peptide for which the binding ability needs to be measured, and incubation was carried out on ice for 4 hours. HLA-A*0201 molecules that had reassociated up to this time point were stained using the fluorescently-labeled monoclonal antibody BB7.2, a conformation dependent monoclonal Ab specific for an assembled form of HLA-A*0201 molecule.
# Subsequently, the amount of fluorescence per cell was measured using a flow cytometer and a dissociation constant Kd value was calculated by a method published in the literature (Udaka et al., Immunogenetics, 51, 816-828, 2000).
# [3] = HLA-A*2402 binding peptides, FIG. 9a and b
Kd (HLA-A*0206 molecule),Kd (HLA-A*2402 molecule),Kd (HLA-A*0201 molecule),Sequence,Reactivity of peptide-dependent cell line toward WT1-expressing cell lines compared with C1R-A24 [1],"Effect of immunotherapy on tumor (malignant tumors; patient KB07-005, prostate cancer, 235Y from December 2006)","Primary tumor by MRI (malignant tumors; patient KB07-006, 3 mg 235Y emulsified with Montanide, weekly intradermal, 4th week)","RECIST, single lung metastasis (malignant tumors; patient KB07-006, 235Y immunization for 10 months)","Primary tumor on continued immunization (malignant tumors; patient KB07-006, 235Y weekly, no recurrence at three and a half years)","Peptide-reactive cytolytic cells in PBMCs of patients [2, 3]","Peptide-reactive cytolytic cells in PBMCs of patients ([2]; HLA-A*0201 binding peptides, T2 targets)"
,,,"CYTWNQMNL (listed as Homo sapiens) [235Y, reference compound]",tends to be higher although differences are small,no effect,apparent reduction of the primary tumor,SD,disappeared,cytolytic cells include those reactive,
331 nM,,,GVFRGIQDV [W292],,,,,,,
245 nM,21.4 nM,389 nM,RVPGVAPTL [W302],tends to be higher although differences are small,,,,,cytolytic cells include those reactive,contain cytolytic cells that recognize
